Assay results: US20240165114A1, “TREATMENT OF DIABETIC NEPHROPATHY WITH AN sGC STIMULATOR” (Cyclerion Therapeutics, Inc., priority 2019, published 2024)

Experiments:
[1] = system: adult patients with type 2 diabetes mellitus with albuminuria; experiment: Phase 2 study: 24-hour ambulatory blood pressure monitoring (ABPM); format: in vivo, human; conditions: ITT, 24-Hour ABPM
Procedure: Hemodynamic and vital signs that were measure included seated and standing BP (systolic and diastolic) and pulse measurements by automated office blood pressure (AOBP), ambulatory BP (systolic and diastolic) and pulse monitoring, respiratory rate, oral temperature. Orthostatic (standing minus seated) measurements were calculated for BPs and pulse.
(§1) This multicenter, randomized, double-blind, placebo-controlled, parallel-group study evaluated 2 dose levels of IW-1973 compared with placebo. The study population consisted of adult patients with type 2 diabetes mellitus, albuminuria, and impaired renal function. Patients had to have been taking antihyperglycemic medications for at least 12 weeks with their regimen being stable (ie, drug and dose) for at least 28 days before the Randomization Visit. Additionally, patients had to have been on a stable regimen of angiotensin-converting enzyme inhibitor (ACEi) or an angiotensin receptor blocker (ARB), for at least 28 days before the Randomization Visit. For more details, see Inclusion Criteria below. A total of 156 patients (approximately 50 patients per arm) were stratified by baseline estimated glomerular filtration rate (eGFR) into three groups: eGFR 30 to 45, >45 to 60, and >60 to 75 mL/min/1.73 m^2) and randomized approximately 1:1:1 to total daily 20 mg IW-1973, 40 mg IW-1973, or placebo.
Screening Period: The Screening Period began with the signature of the informed consent form (ICF) at the Screening Visit and lasted up to 45 days. At the Screening Visit (which could occur from Day −45 to Day −15), patients underwent preliminary screening procedures to determine their eligibility. Eligible patients returned to the clinic for the Baseline Visit ([…]) for baseline and eligibility assessments including 24-hour ambulatory blood pressure monitoring (ABPM). The end of the Screening Period coincided with the beginning of the Treatment Period.
Dosing on Days 1 to 7 (±1) was BID (twice daily), morning and evening; dosing on Day 8 (±1) and onward was QD (once daily), 2 tablets in the morning. At the Randomization Visit on Day 1, patients received their morning dose of study drug in the clinic and underwent safety, efficacy, and pharmacokinetic (PK) assessments, including blood and urine collections at prespecified times. Patients stayed in the clinic at least 6 hours postdose and were able to leave the clinic at the Investigator's discretion following all study procedures. At the Week 1 Visit on Day 8 (±1), patients returned to the clinic and received their first QD dose of study drug in the clinic. Patients underwent safety, efficacy, and PK assessments, including blood and urine collections at prespecified times. Patients stayed in the clinic at least 6 hours postdose and were able to leave the clinic at the Investigator's discretion following all study procedures. At the Week 4 (Day 29±3), Week 8 (Day 57±3), and End of Treatment (Day 87±3) Visits, patients returned to the clinic for study drug administration; safety, efficacy, and PK assessments; and study drug supply, if applicable.

[2] = patient concomitantly taking a strong CYP3A inhibitor; cited from earlier work
[3] = system: adult patients with type 2 diabetes mellitus with albuminuria; experiment: Phase 2 study: fasting plasma glucose; format: in vivo, human; conditions: ITT
Text: (§2) Other secondary objectives of this clinical study included the evaluation of the pharmacokinetic (PK) concentrations of oral IW-1973 and the exploration of the effect of oral IW-1973 on hemodynamics and metabolic effects when administered daily for approximately 12 weeks to adult patients with type 2 diabetes mellitus with albuminuria (i.e., DN patients) who were on a stable regimen of renin-angiotensin system inhibitors (RAAS inhibitors, i.e., ACEi's and ARBs).
(§3) Clinical laboratory assessments obtained during the performance of this clinical trial included: complete blood count, serum chemistry panel, urinalysis, coagulation panel, estimated glomerular filtration rate (eGFR; determined by the Chronic Kidney Disease Epidemiology Collaboration [CKD-EPI] creatinine equation), hemoglobin A1c (HbA1C), Homeostatic Model Assessment to estimate insulin resistance (HOMA-IR), platelet function assessment (using VerifyNow®, at a subset of sites), urine pregnancy, and screens for hepatitis, human immunodeficiency virus, and drugs of abuse.
as §1

[4] = system: adult patients with type 2 diabetes mellitus with albuminuria; experiment: Phase 2 study: serum cholesterol; format: in vivo, human; conditions: for Serum Cholesterol: Between PRL and PBO Group LS Mean Change from Baseline at week 12 / Serum Cholesterol: Within Group LS Mean Change from Baseline at Week 12: ITT; for Cholesterol: Placebo-Adjusted LS Mean Change from Baseline at Week 12 / Cholesterol: Within Group LS Mean Change from Baseline at Week 12: mITT Population
Text: as §2, §3, §1

OC(CNc1nc(-c2cc(-c3ccon3)n(Cc3ccccc3F)n2)ncc1F)(C(F)(F)F)C(F)(F)F [Compound I, praliciguat]
Between PRL and PBO Group LS Mean Change 24-hour MAP from Baseline at week 12 ([1]; PRL 20 mg): −3.96 mmHg
Between PRL and PBO Group LS Mean Change 24-hour SBP from Baseline at week 12 ([1]; PRL 20 mg): −4.06 mmHg
Within Group LS Mean Change from Baseline 24-hour MAP at Week 12 ([1]; PRL 20 mg): −3.62 mmHg
Within Group LS Mean Change from Baseline 24-hour SBP at Week 12 ([1]; PRL 20 mg): −4.18 mmHg
Between PRL and PBO Group LS Mean Change 24-hour MAP from Baseline at week 12 ([1]; PRL 40 mg): −3.58 mmHg
Between PRL and PBO Group LS Mean Change 24-hour SBP from Baseline at week 12 ([1]; PRL 40 mg): −4.29 mmHg
Within Group LS Mean Change from Baseline 24-hour MAP at Week 12 ([1]; PRL 40 mg): −3.23 mmHg
Within Group LS Mean Change from Baseline 24-hour SBP at Week 12 ([1]; PRL 40 mg): −4.41 mmHg
Between PRL and PBO Group LS Mean Change 24-hour MAP from Baseline at week 12 ([1]; PRL Combined): −3.77 mmHg
Between PRL and PBO Group LS Mean Change 24-hour SBP from Baseline at week 12 ([1]; PRL Combined): −4.17 mmHg
Within Group LS Mean Change from Baseline 24-hour MAP at Week 12 ([1]; PRL Combined): −3.43 mmHg
Within Group LS Mean Change from Baseline 24-hour SBP at Week 12 ([1]; PRL Combined): −4.30 mmHg
AUC with concomitant strong CYP3A inhibitor versus without [2]: doubled
T1/2 with concomitant strong CYP3A inhibitor versus without [2]: doubled
Fasting Plasma Glucose: Between PRL and PBO Group LS Mean Change from Baseline at week 12 ([3]; PRL 20 mg): 2.3 mg/dL
Fasting Plasma Glucose: Within Group LS Mean Change from Baseline at Week 12 ([3]; PRL 20 mg): 6.09 mg/dL
Fasting Plasma Glucose: Between PRL and PBO Group LS Mean Change from Baseline at week 12 ([3]; PRL 40 mg): -18.2 mg/dL
Fasting Plasma Glucose: Within Group LS Mean Change from Baseline at Week 12 ([3]; PRL 40 mg): -14.4 mg/dL
Fasting Plasma Glucose: Between PRL and PBO Group LS Mean Change from Baseline at week 12 ([3]; PRL Combined): -7.9 mg/dL
Fasting Plasma Glucose: Within Group LS Mean Change from Baseline at Week 12 ([3]; PRL Combined): -4.1 mg/dL
Serum Cholesterol: Between PRL and PBO Group LS Mean Change from Baseline at week 12 ([4]; PRL 20 mg): -12.1 mg/dL
Serum Cholesterol: Within Group LS Mean Change from Baseline at Week 12 ([4]; PRL 20 mg): -7.8 mg/dL
Serum Cholesterol: Between PRL and PBO Group LS Mean Change from Baseline at week 12 ([4]; PRL 40 mg): -8.1 mg/dL
Serum Cholesterol: Within Group LS Mean Change from Baseline at Week 12 ([4]; PRL 40 mg): -3.7 mg/dL
Serum Cholesterol: Between PRL and PBO Group LS Mean Change from Baseline at week 12 ([4]; PRL Combined): -10.1 mg/dL
Serum Cholesterol: Within Group LS Mean Change from Baseline at Week 12 ([4]; PRL Combined): -5.8 mg/dL
Cholesterol: Placebo-Adjusted LS Mean Change from Baseline at Week 12 ([4]; PRL 20 mg): -13.1 mg/dL
Cholesterol: Within Group LS Mean Change from Baseline at Week 12 ([4]; PRL 20 mg): -10.6 mg/dL
Cholesterol: Placebo-Adjusted LS Mean Change from Baseline at Week 12 ([4]; PRL 40 mg): -7.5 mg/dL
Cholesterol: Within Group LS Mean Change from Baseline at Week 12 ([4]; PRL 40 mg): -4.8 mg/dL
Cholesterol: Placebo-Adjusted LS Mean Change from Baseline at Week 12 ([4]; PRL Combined): -10.2 mg/dL
Cholesterol: Within Group LS Mean Change from Baseline at Week 12 ([4]; PRL Combined): -7.7 mg/dL
